Data published in paper PMC7156724, “Potent BRD4 inhibitor suppresses cancer cell-macrophage interaction” (Nature Communications, 2020).
Values joined by “and” are separate entries in the source; they are usually repeats but may differ in a detail not shown here. Identical values can stand only once.

How the values were obtained:
H526 SCLC tumors = assay: H526 SCLC xenograft tumor growth; format: in vivo, mouse; details: for Tumor volume: Fig.3a, n=6, individual animals
Excerpt: PO, oral administration; QD, once daily; BID, twice daily. b–d Tumor growth curves for A2780 ovarian tumor (n = 5) (b), TMD8 large B cell lymphoma (n = 6) (c), and B16F10 melanoma (n = 5) (d) bearing mice treated with the indicated compounds once daily for 11-21 days. e, f Tumor growth curves for A375 melanoma (n = 6) (e), and patient-derived xenograft (PDX) of melanoma (n = 5) (f) bearing mice treated with the indicated compounds once daily (5 days on, 2 days off) for 21 days. For d–f, NHWD-870 used is NHWD-870-HCl synthesized using Suzuki coupling route. Data are presented as mean ± SEM in (a, b, d, f) and mean + SEM in (c, e). p values were calculated using two-tailed, unpaired t tests. *p < 0.05; **p < 0.01; ***p < 0.001. Source data are provided as a Source Data file.
4–6 weeks old female BALB/c nude mice were used for most experiments, with the exception of 6–8 weeks old female C57BL/6 mice were used for B16F10 experiments, and 6–8 weeks old male BALB/c nude mice and SD rats were used for pharmacokinetic experiments. All animals were purchased from Shanghai SIPPR-Bk Lab Animal Co., Ltd. All animals were housed under a regimen of 12 h light/12 h dark cycles and specific pathogen-free conditions. 5×10^6 NCI-H526, ES-2, MDA-MB231, A2780, A375, B16F10, and TMD-8 cells (0.1 ml) were injected subcutaneously into female nude mice. The melanoma patient-derived xenograft model was derived from a human melanoma sample (BRAF, NARS and NF1 wild type, and p53 mutant) removed from a patient in Xiangya Hospital. Surgically removed tumor fragments were implanted subcutaneously into female NSG mice. When the tumors grew to ~1000 mm^3, they were harvested and cryopreserved or immediately re-implanted for expansion or experiments. Mouse body weight and tumor sizes were measured every 3 days. Once the tumors grew to 150–200 mm^3, mice were treated with the compounds as described in the Figures. 1 × 10^6 A2780 cells (1 ml) were injected into the abdominal cavity of nude mice. Ascitic volume and tumor weight were measured by an electronic balance. All the procedures were evaluated and approved by the Institutional Animal Care and Use Committee of Central South University and Yale University.

[1] = Metabolic stability assay, human liver microsomes; details: for Remaining in Human liver microsomes (Sup Fig.6e): in % (unit assumed)
Experimental: 7. Metabolic stability assay. The metabolic profile of NHWD-870 was determined using mouse, rat, dog, monkey, and human liver microsomes using the protocols […]
No. Compound ID Exat Mass Stock Conc.
1) 100 mM potassium phosphate buffer, PH7.4; 2) 10mM MgCI2
1) Intermediate solution: Dilute 5 μL of compound or control from stock solution (10 mM) with 45 uL DMSO,then mixed with 450 μL 1:1 Methanol/Water (Conc.: 10 0 […]
2) Working solution: Dilute 50 μL from intermediate solution with 450 μL 100 mM potassium phosphate buffer (Conc.: 10 μM, 4.5%MeOH)
(3) NADPH regenerating system (final Isocitric dehydrogenase conc.= 1 unit/mL at […]
1) β-Nicotinamide adenine dinucleotide phosphate, Vendor: sigma Cat. No. N0505
2) Isocitric acid, Vendor: Sigma Cat. No. I1252
3) Isocitric dehydrogenase, Vendor: sigma Cat. No. I2002
(4) Liver microsome solution preparation (final concentration o f 0.5 mg protein/mL) […]
Cold ACN including 100 ng/mL Tolbutamide and 100 ng/mL Labetalol as internal […]
1) Add 10 μL compound or control working solution/well to all plates (T0, T5, T10, T20, T30, T60, NCF60) except matrix blank.
2) Dispense 680 μL/well microsome solution to 96-well plate as reserv oir according to […]
plate map. Then add 80 μL/well to every plate by Apricot, incubate the mixture of microsome solution and compound at 37℃ for about 10 min.
3) Add 10 μL 100 mM potassium phosphate buffer/well to NCF60, incubate at 37℃, […]
4) After pre-warming, dispense 90 μL/well NADPH regenerating system to 96-well plate as reservoir according to the plate map. Then add 10 μL/well to every plate by Apricot to start reaction.
5) Incubate at 37℃, start timer 2.
6) Add 300 (μL/well) stop solution (cold in 4℃, including 100 ng/mL Tolbutamide and 100 ng/mL Labetalol) to terminate the reaction.
7) The sampling plates are shaked for approx 10 min.
8) Samples are centrifuged at 4000 rpm for 20 min under 4℃.
9) While centrifuging, load 8×new 96-well plate with 300 μL HPLC water, then transfer 100 μL supernatant, mixed for LC/MS/MS.
Use equation of first order kinetics to calculate t1/2 and Clin t(mic): […]
Equation of first order kinetics: […]

[2] = human, liver microsomes, pH 7.4

**Q.** Which Tumor volume (H526 SCLC tumors; 0.75mg/kg p.o. QD x 21D, day 0) does the source give for `Cc1nnn(C)c1-c1cnc2c3c4cnn(C)c4ccc3n([C@H](c3ccccc3)C3CCOCC3)c2c1` [NHWD-870] here?
**A.** 192.244 mm^3 and 263.88 mm^3 and 212.226 mm^3 and 157.172 mm^3 and 251.256 mm^3 and 74.1662 mm^3

**Q.** What about the Tumor volume (H526 SCLC tumors; 0.75mg/kg p.o. QD x 21D, day 3) of the same compound?
**A.** 395.966 mm^3 and 556.678 mm^3 and 654.987 mm^3 and 201.421 mm^3 and 423.505 mm^3 and 90.8277 mm^3

**Q.** What about the Tumor volume (H526 SCLC tumors; 0.75mg/kg p.o. QD x 21D, day 7) of the same compound?
**A.** 723.612 mm^3 and 1124.37 mm^3 and 964.914 mm^3 and 402.947 mm^3 and 655.847 mm^3 and 216.235 mm^3

**Q.** And the Tumor volume (H526 SCLC tumors; 0.75mg/kg p.o. QD x 21D, day 10)?
**A.** 1123.82 mm^3 and 1337.09 mm^3 and 1219.11 mm^3 and 614.795 mm^3 and 939.345 mm^3 and 324.637 mm^3

**Q.** And the Tumor volume (H526 SCLC tumors; 0.75mg/kg p.o. QD x 21D, day 14)?
**A.** 1169.07 mm^3 and 1508.45 mm^3 and 1544.25 mm^3 and 755.744 mm^3 and 1018.31 mm^3 and 369.016 mm^3

**Q.** And the Tumor volume (H526 SCLC tumors; 0.75mg/kg p.o. QD x 21D, day 17)?
**A.** 1563.43 mm^3 and 1842.12 mm^3 and 2108.97 mm^3 and 937.093 mm^3 and 1199.84 mm^3 and 528.17 mm^3

**Q.** And the Tumor volume (H526 SCLC tumors; 0.75mg/kg p.o. QD x 21D, day 20)?
**A.** 1882.72 mm^3 and 1980.4 mm^3 and 2365.8 mm^3 and 1110.57 mm^3 and 1230.51 mm^3 and 727.098 mm^3

**Q.** What about the Tumor volume (H526 SCLC tumors; 1.5mg/kg p.o. BID x 21D, day 0) of the same compound?
**A.** 109.221 mm^3 and 224.83 mm^3 and 299.894 mm^3

**Q.** What about the Tumor volume (H526 SCLC tumors; 1.5mg/kg p.o. BID x 21D, day 3) of the same compound?
**A.** 144.898 mm^3 and 505.755 mm^3

**Q.** And the Tumor volume (H526 SCLC tumors; 1.5mg/kg p.o. BID x 21D, day 7)?
**A.** 197.484 mm^3 and 503.899 mm^3

**Q.** What about the Tumor volume (H526 SCLC tumors; 1.5mg/kg p.o. BID x 21D, day 10) of the same compound?
**A.** 131.255 mm^3 and 391.019 mm^3

**Q.** What about the Tumor volume (H526 SCLC tumors; 1.5mg/kg p.o. BID x 21D, day 14) of the same compound?
**A.** 62.3145 mm^3 and 300.826 mm^3

**Q.** And the Tumor volume (H526 SCLC tumors; 1.5mg/kg p.o. BID x 21D, day 17)?
**A.** 47.429 mm^3 and 191.773 mm^3

**Q.** And the Tumor volume (H526 SCLC tumors; 1.5mg/kg p.o. BID x 21D, day 20)?
**A.** 26.6114 mm^3 and 100.415 mm^3 and 135.956 mm^3

**Q.** What about the Tumor volume (H526 SCLC tumors; 1.5mg/kg p.o. QD x 21D, day 0) of the same compound?
**A.** 70.0321 mm^3 and 190.911 mm^3 and 142.166 mm^3 and 225.589 mm^3 and 289.503 mm^3 and 248.923 mm^3

**Q.** What about the Tumor volume (H526 SCLC tumors; 1.5mg/kg p.o. QD x 21D, day 3) of the same compound?
**A.** 54.6804 mm^3 and 344.715 mm^3 and 214.258 mm^3 and 388.716 mm^3 and 680.326 mm^3 and 337.153 mm^3

**Q.** And the Tumor volume (H526 SCLC tumors; 1.5mg/kg p.o. QD x 21D, day 7)?
**A.** 52.3406 mm^3 and 448.169 mm^3 and 304.6 mm^3 and 593.496 mm^3 and 1004.88 mm^3 and 603.12 mm^3

**Q.** And the Tumor volume (H526 SCLC tumors; 1.5mg/kg p.o. QD x 21D, day 10)?
**A.** 65.7752 mm^3 and 568.076 mm^3 and 360.126 mm^3 and 706.593 mm^3 and 1344.39 mm^3 and 669.797 mm^3

**Q.** What about the Tumor volume (H526 SCLC tumors; 1.5mg/kg p.o. QD x 21D, day 14) of the same compound?
**A.** 53.8674 mm^3 and 610.408 mm^3 and 386.917 mm^3 and 812.577 mm^3 and 1371.12 mm^3 and 772.943 mm^3

**Q.** And the Tumor volume (H526 SCLC tumors; 1.5mg/kg p.o. QD x 21D, day 17)?
**A.** 48.5889 mm^3 and 810.7 mm^3 and 443.445 mm^3 and 889.286 mm^3 and 1654.72 mm^3 and 1027.16 mm^3

**Q.** What about the Tumor volume (H526 SCLC tumors; 1.5mg/kg p.o. QD x 21D, day 20) of the same compound?
**A.** 34.4047 mm^3 and 640.677 mm^3 and 402.424 mm^3 and 852.013 mm^3 and 1472.9 mm^3 and 894.82 mm^3

**Q.** And the “effect on tumor growth” value (H526 SCLC tumors; H526 SCLC, oral, 3 mg/kg per day or 1.5 mg/kg twice per day, 21 days)?
**A.** regressed established H526 SCLC tumors

**Q.** What about the “Remaining (T=60min)” value ([1]; human liver microsomes) of the same compound?
**A.** 23.6%

**Q.** And the “Remaining (*NCF=60min)” value ([1]; human liver microsomes, no cofactor)?
**A.** 74.4%

**Q.** What about the CLint scaled at 1 µM [1, 2] of the same compound?
**A.** 45.3 mL/min/kg

**Q.** And the half-life at 1 µM [1, 2]?
**A.** 27.6 min

**Q.** And the microsomal CLint at 1 µM ([1]; human, microsomes, pH 7.4)?
**A.** 50.3 µL/min/mg

**Q.** And the half-life at 1 µM ([1]; mouse, rat, dog, monkey, human, liver microsomes, pH 7.4)?
**A.** 21 to 39 min

**Q.** And the “Remaining in Human liver microsomes (Sup Fig.6e)” value (from here on “Remaining … (Sup Fig.6e)”) ([1]; time 0)?
**A.** 100

**Q.** And the “Remaining … (Sup Fig.6e)” value ([1]; time 5)?
**A.** 96.274

**Q.** And the “Remaining … (Sup Fig.6e)” value ([1]; time 10)?
**A.** 76.421

**Q.** What about the “Remaining … (Sup Fig.6e)” value ([1]; time 20) of the same compound?
**A.** 52.125

**Q.** And the “Remaining … (Sup Fig.6e)” value ([1]; time 30)?
**A.** 39.904

**Q.** What about the “Remaining … (Sup Fig.6e)” value ([1]; time 60) of the same compound?
**A.** 23.628
